Results as given in patent US20210379066A1, “COMBINATIONS OF POSITIVE ALLOSTERIC MODULATORS AND NICOTINIC ACETYLCHOLINE RECEPTOR AGONISTS FOR TREATING OCULAR CONDITIONS” (Oyster Point Pharma, Inc., priority 2018, published 2021).
“Also recorded” adds a separate entry of the source. Where two headings read alike, the source gives them in different places.

How the values were obtained:
Format in all cases: cell-based
human alpha4beta2 nAChRs [1] = target: T1, human alpha4beta2 nAChRs (Homo sapiens, UniProt P17787+P43681); assay: Desensitization by sustained (1 hour) agonist exposure and recovery, without and with PAM, Xenopus oocytes (Example 1); conditions: no PAM; for desensitization / inhibition of the response by sustained agonist exposure: 1 hour exposure, 1 mM compound 1 hemi-galactarate dihydrate or 300 μM varenicline tartrate; for recovery of the response after wash: after 1 hour agonist exposure, 3 hours wash
T1 construct: expressed in transfected cells; host or cells: Xenopus laevis oocytes (cDNA injection)
T1 sequence (P43681 29-627 limits assumed): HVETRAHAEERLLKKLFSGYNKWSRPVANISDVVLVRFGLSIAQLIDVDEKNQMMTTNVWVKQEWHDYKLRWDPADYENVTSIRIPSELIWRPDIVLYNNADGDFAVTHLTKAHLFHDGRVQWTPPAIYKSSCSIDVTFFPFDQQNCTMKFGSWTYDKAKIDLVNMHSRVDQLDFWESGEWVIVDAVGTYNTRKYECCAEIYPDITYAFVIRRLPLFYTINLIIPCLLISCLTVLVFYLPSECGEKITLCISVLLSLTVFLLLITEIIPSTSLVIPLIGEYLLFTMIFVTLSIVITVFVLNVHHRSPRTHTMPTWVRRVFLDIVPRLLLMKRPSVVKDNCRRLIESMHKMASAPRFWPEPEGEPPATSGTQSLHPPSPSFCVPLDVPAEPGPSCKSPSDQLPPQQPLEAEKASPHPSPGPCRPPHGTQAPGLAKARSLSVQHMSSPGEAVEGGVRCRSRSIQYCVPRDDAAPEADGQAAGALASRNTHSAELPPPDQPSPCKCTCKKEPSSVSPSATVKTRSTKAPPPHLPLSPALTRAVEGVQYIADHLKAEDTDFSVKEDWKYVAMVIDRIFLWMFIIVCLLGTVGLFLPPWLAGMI
T1 sequence (P17787 26-502): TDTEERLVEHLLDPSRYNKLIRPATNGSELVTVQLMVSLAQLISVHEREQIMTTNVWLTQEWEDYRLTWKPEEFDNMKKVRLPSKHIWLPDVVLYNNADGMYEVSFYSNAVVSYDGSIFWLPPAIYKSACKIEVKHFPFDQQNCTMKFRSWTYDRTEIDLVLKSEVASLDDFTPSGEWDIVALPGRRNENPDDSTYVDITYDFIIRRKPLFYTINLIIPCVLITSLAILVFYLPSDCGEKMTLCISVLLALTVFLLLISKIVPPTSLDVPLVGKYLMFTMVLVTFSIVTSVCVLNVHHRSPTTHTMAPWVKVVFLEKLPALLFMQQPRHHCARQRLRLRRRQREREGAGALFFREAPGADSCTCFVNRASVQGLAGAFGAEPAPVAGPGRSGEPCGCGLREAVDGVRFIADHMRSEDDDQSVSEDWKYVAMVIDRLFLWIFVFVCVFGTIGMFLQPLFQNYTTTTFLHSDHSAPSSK

human alpha4beta2 nAChRs [2] = target: T1, human alpha4beta2 nAChRs; assay: Antagonistic activity / desensitization, cumulative exposure in the low concentration range (Example 2); conditions: nanomolar range, up to 300 nM; dihydrate
human nAChR alpha3beta4 = target: T2, human nAChR alpha3beta4 (Homo sapiens, UniProt P30926+P32297); assay: Agonist activity, two-electrode voltage clamp in Xenopus oocytes (Examples 2 and 5); conditions: for agonist character: versus ACh response
T2 construct: expressed in transfected cells; host or cells: Xenopus laevis oocytes (cDNA injection)
T2 sequence (P32297 32-505): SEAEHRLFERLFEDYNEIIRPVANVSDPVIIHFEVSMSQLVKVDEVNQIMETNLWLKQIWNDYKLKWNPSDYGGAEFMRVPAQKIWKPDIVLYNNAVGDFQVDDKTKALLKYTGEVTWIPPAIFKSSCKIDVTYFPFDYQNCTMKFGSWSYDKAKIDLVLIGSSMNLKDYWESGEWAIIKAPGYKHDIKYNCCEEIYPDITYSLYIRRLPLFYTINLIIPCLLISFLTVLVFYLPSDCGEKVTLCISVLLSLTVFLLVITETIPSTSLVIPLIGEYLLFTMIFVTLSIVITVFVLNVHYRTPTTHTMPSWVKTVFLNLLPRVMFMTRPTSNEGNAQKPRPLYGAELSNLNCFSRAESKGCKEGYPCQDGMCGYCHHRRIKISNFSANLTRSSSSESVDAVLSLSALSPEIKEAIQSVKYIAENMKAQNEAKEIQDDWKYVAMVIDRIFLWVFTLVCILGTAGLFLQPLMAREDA
T2 sequence (P30926 22-498): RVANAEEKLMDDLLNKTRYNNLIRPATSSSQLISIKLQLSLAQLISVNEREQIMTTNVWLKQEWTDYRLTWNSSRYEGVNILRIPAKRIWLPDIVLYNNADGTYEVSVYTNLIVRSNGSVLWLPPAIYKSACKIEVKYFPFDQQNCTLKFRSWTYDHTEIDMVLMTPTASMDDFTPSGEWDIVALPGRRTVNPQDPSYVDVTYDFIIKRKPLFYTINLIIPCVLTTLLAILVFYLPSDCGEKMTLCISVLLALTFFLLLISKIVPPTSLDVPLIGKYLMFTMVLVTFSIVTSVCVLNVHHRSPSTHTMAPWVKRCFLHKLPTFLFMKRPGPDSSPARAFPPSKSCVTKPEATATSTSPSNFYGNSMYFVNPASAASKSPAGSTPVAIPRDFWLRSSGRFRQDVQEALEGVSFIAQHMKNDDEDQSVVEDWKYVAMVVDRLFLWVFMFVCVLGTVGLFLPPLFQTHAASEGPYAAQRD
Procedure: (§1) All experiments were carried out at human nAChRs expressed in Xenopus oocytes using the method of cDNA expression. Xenopus oocytes were prepared and injected using standard procedures.
(§2) Briefly, ovaries were harvested from Xenopus Laevis females that have been deeply anesthetized by cooling at 4° C. and Tricaine methanesulfonate (MS-222 at a concentration of 150 mg/L) in sodium bicarbonate (300 mg/L). Once anesthetized the animal was decapitated and pithed following the rules of animal rights from the Geneva canton. A small piece of ovary was isolated for immediate preparation while the remaining part was placed at 4° C. in a sterile Barth solution containing in mM NaCl 88, KCl 1, NaHCO32.4, HEPES 10, MgSO4.7H2O 0.82, Ca(NO3)2.4H2O 0.33, CaCl2.6H2O 0.41, at pH 7.4, and supplemented with 20 μg/ml of kanamycin, 100 unit/ml penicillin. All recordings were performed at 18° C. and cells superfused with OR2 medium containing in mM: NaCl 88, KCl 2.5, HEPES 5, CaCl2.2H2O 1.8, MgCl2.6H2O 1, pH 7.4.
(§3) Currents evoked by ACh or other agonists were recorded using an automated process equipped with standard two-electrode voltage-clamp configuration (TEVC). Data were captured and analyzed using a HiQScreen proprietary data acquisition and analysis software running under Matlab (Mathworks Inc.).
(§4) See Example 1. […] The test concentration of acetylcholine chloride was 1280 micromolar.
(§5) Injections of cDNAs encoding for the human alpha3beta4, alpha3alpha5beta4, alpha4beta2, and alpha7 were performed in at least 95 oocytes were performed using a proprietary automated injection and receptor expression examined at least two days later. Oocytes were poked with two electrodes and their membrane potential maintained, unless indicated, at −80 mV throughout the experiment.
(§6) A protocol to determine agonistic activity in the oocytes expressing the nAChRs was developed. The cells were exposed to a series of increasing concentrations of a compound agonist for 10 seconds each at two minute intervals. The current evoked from exposure to the agonist at each concentration was recorded. For oocytes expressing alpha7 nAChRs, exposure to the agonist was reduced to 5 seconds. This process was repeated for each agonist tested against each type of nAChR expressing cell.
(§7) To evaluate the agonistic properties of compound 1 hemi-galactarate dihydrate a protocol of brief exposures to a series of growing concentrations of compound 1 hemi-galactarate dihydrate was used.
(§8) Agonist Preparation: See Example 1. […] The test concentration of acetylcholine chloride was 1280 micromolar.
as §5, with “Experimental Procedures: Injections” for “Injections”, “alpha4beta2, alpha4alpha6beta2,” for “alpha4beta2,”, “oocytes” for “oocytes were performed”, “injection device. Cellular” for “injection and”, “expression was” for “expression”
as §6, with “developed. Oocytes expressing a nAChR subtype were exposed to a brief test pulse of acetylcholine (1280 micromolar) while the holding current and response was evaluated. Cells displaying robust currents were washed for 90 seconds.” for “developed.”, “were then” for “were”, “nAChR” for “compound”, “intervals. The nAChR agonist test concentrations were 0.1, 0.3, 1, 3, 10, 30, 100, 300 (micromolar).” for “intervals.”

human nAChR alpha4beta2 = target: T3, human nAChR alpha4beta2 (Homo sapiens, UniProt P17787+P43681); assay: as above; conditions: for EC50: Example 2; for effect on the subsequent ACh-evoked current: after exposure to the agonist concentration series; for agonist character: versus ACh response
T3 construct: expressed in transfected cells; host or cells: Xenopus laevis oocytes (cDNA injection)
T3 sequence (P43681 29-627 limits assumed): as the sequence (P43681 29-627 limits assumed) above
T3 sequence (P17787 26-502): as the sequence (P17787 26-502) above
Procedure: as §1, §2, §3, §4, §5, §6, §7, §8
as §5, with “Experimental Procedures: Injections” for “Injections”, “alpha4beta2, alpha4alpha6beta2,” for “alpha4beta2,”, “oocytes” for “oocytes were performed”, “injection device. Cellular” for “injection and”, “expression was” for “expression”
as §6, with “developed. Oocytes expressing a nAChR subtype were exposed to a brief test pulse of acetylcholine (1280 micromolar) while the holding current and response was evaluated. Cells displaying robust currents were washed for 90 seconds.” for “developed.”, “were then” for “were”, “nAChR” for “compound”, “intervals. The nAChR agonist test concentrations were 0.1, 0.3, 1, 3, 10, 30, 100, 300 (micromolar).” for “intervals.”

[3] = target: T4, human nAChR alpha3alpha5beta4 (Homo sapiens, UniProt P30532+P30926+P32297); assay: as above; conditions: for EC50: Example 2; for agonist character: versus ACh response
T4 construct: expressed in transfected cells; host or cells: Xenopus laevis oocytes (cDNA injection)
T4 sequence (P32297 32-505): as the sequence (P32297 32-505) above
T4 sequence (P30532 23-468): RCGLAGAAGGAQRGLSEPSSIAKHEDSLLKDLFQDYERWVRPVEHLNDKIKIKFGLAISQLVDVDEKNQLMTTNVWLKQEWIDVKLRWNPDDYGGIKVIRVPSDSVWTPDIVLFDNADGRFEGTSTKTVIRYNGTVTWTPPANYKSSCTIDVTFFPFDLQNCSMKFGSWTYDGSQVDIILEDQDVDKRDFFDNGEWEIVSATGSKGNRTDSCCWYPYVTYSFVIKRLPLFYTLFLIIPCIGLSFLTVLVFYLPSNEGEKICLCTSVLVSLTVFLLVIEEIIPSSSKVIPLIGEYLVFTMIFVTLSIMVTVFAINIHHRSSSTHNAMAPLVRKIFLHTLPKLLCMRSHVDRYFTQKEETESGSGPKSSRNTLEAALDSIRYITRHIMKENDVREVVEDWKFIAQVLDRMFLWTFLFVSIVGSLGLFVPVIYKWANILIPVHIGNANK
T4 sequence (P30926 22-498): as the sequence (P30926 22-498) above
Procedure: as §1, §2, §3, §4, §5, §6, §7, §8
as §5, with “Experimental Procedures: Injections” for “Injections”, “alpha4beta2, alpha4alpha6beta2,” for “alpha4beta2,”, “oocytes” for “oocytes were performed”, “injection device. Cellular” for “injection and”, “expression was” for “expression”
as §6, with “developed. Oocytes expressing a nAChR subtype were exposed to a brief test pulse of acetylcholine (1280 micromolar) while the holding current and response was evaluated. Cells displaying robust currents were washed for 90 seconds.” for “developed.”, “were then” for “were”, “nAChR” for “compound”, “intervals. The nAChR agonist test concentrations were 0.1, 0.3, 1, 3, 10, 30, 100, 300 (micromolar).” for “intervals.”

human nAChR alpha7 = target: T5, human nAChR alpha7 (Homo sapiens, UniProt P36544); assay: as above; conditions: for agonist character: versus ACh response
T5 construct: expressed in transfected cells; host or cells: Xenopus laevis oocytes (cDNA injection)
T5 sequence (P36544 23-502): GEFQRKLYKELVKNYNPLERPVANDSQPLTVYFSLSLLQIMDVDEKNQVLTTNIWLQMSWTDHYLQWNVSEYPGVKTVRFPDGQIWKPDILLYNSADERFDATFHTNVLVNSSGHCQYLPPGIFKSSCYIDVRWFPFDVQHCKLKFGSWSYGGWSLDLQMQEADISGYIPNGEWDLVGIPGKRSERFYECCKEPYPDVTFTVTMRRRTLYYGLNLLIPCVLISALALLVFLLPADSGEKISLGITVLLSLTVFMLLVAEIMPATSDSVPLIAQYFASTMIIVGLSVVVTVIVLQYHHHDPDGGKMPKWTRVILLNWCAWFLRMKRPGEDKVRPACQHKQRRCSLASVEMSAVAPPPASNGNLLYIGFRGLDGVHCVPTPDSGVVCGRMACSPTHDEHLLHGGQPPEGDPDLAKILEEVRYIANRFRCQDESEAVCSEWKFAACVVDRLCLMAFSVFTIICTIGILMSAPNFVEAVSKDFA
Procedure: as §1, §2, §3, §4, §5, §6, §7, §8
as §5, with “Experimental Procedures: Injections” for “Injections”, “alpha4beta2, alpha4alpha6beta2,” for “alpha4beta2,”, “oocytes” for “oocytes were performed”, “injection device. Cellular” for “injection and”, “expression was” for “expression”
as §6, with “developed. Oocytes expressing a nAChR subtype were exposed to a brief test pulse of acetylcholine (1280 micromolar) while the holding current and response was evaluated. Cells displaying robust currents were washed for 90 seconds.” for “developed.”, “were then” for “were”, “nAChR” for “compound”, “intervals. The nAChR agonist test concentrations were 0.1, 0.3, 1, 3, 10, 30, 100, 300 (micromolar).” for “intervals.”

[4] = target: T6, human alpha3alpha5beta4 nAChRs (Homo sapiens, UniProt P30532+P30926+P32297); assay: Antagonistic activity / desensitization, cumulative exposure in the low concentration range (Example 2); conditions: nanomolar range, up to 300 nM; dihydrate
T6 construct: expressed in transfected cells; host or cells: Xenopus laevis oocytes (cDNA injection)
T6 sequence (P32297 32-505): as the sequence (P32297 32-505) above
T6 sequence (P30532 23-468): as the sequence (P30532 23-468) above
T6 sequence (P30926 22-498): as the sequence (P30926 22-498) above

human alpha7 nAChRs = target: T7, human alpha7 nAChRs (Homo sapiens, UniProt P36544); assay: as above; conditions: concentrations up to 300 nM; dihydrate
T7 construct: expressed in transfected cells; host or cells: Xenopus laevis oocytes (cDNA injection)
T7 sequence (P36544 23-502): as the sequence (P36544 23-502) above

human alpha3beta4 nAChRs [5] = target: T8, human alpha3beta4 nAChRs (Homo sapiens, UniProt P30926+P32297); assay: as above; conditions: concentrations up to 300 nM
T8 construct: expressed in transfected cells; host or cells: Xenopus laevis oocytes (cDNA injection)
T8 sequence (P32297 32-505): as the sequence (P32297 32-505) above
T8 sequence (P30926 22-498): as the sequence (P30926 22-498) above

human alpha3beta4 nAChRs [6] = target: T8, human alpha3beta4 nAChRs; assay: Sustained exposure to 300 μM varenicline tartrate and its recovery (Example 2)
human alpha4beta2 nAChRs [7] = target: T1, human alpha4beta2 nAChRs; assay: as above; conditions: 36 minutes wash
[8] = listed as Compound 1 hemi-galactarate dihydrate, dihydrate

C(=C\[C@H]1CCNC1)/c1cncnc1 [compound 1 hemi-galactarate dihydrate, (R)-5-((E)-2-pyrrolidin-3-ylvinyl)pyrimidine hemigalactarate dihydrate]
desensitization / inhibition of the response by sustained agonist exposure (human alpha4beta2 nAChRs [1]; dihydrate): no long-lasting desensitization; also recorded: only a modest inhibition; also recorded: does not cause a long-lasting inhibition; also recorded: no long-lasting inhibition | recovery of the response after wash (human alpha4beta2 nAChRs [1]): almost full recovery | response after 18 hours recovery (human alpha4beta2 nAChRs [1]; after 1 hour exposure to 1 mM agonist): significant increase of the response | inhibition of the ACh-evoked current by sustained exposure (human alpha4beta2 nAChRs [2]): marked inhibition; also recorded: inhibits in a concentration-dependent manner | percent of the maximal ACh-evoked currents (human nAChR alpha3beta4; ACh 1280 micromolar): about 94% | EC50 (human nAChR alpha3beta4; read-out: EC50): 42.1 ± 5.36 µM | agonist character (human nAChR alpha3beta4; [8]): almost as a full agonist | evoked currents larger than the maximal ACh responses (human nAChR alpha4beta2): about 2 fold | EC50 (human nAChR alpha4beta2; read-out: EC50): 48.8 ± 17.4 µM | effect on the subsequent ACh-evoked current (human nAChR alpha4beta2; dihydrate): enhanced | agonist character (human nAChR alpha4beta2; [8]): more potent agonist than ACh | percent of the maximal ACh-evoked currents ([3]; ACh 1280 micromolar): about 94% | EC50 ([3]; read-out: EC50): 32.1 ± 2.16 µM | agonist character [3, 8]: almost as a full agonist | EC50 (human nAChR alpha7; Example 2, value for compound 1 salt only an estimation): 1.26 ± 0.5 mM | percent of the maximal ACh-evoked current (human nAChR alpha7; at 300 μM (300 micromolar) agonist, dihydrate): 24% | agonist character (human nAChR alpha7; dihydrate): poor agonist | agonist character (human nAChR alpha7; [8]): more potent agonist than ACh | inhibition of the ACh-evoked current by sustained exposure [4]: marked inhibition; also recorded: inhibits in a concentration-dependent manner | inhibition of the ACh-evoked current by sustained exposure (human alpha7 nAChRs): insensitive; also recorded: no significant inhibition | inhibition of the ACh-evoked current by sustained exposure (human alpha3beta4 nAChRs [5]; dihydrate): insensitive; also recorded: no significant inhibition

varenicline tartrate [reference compound]
recovery from desensitization (human alpha3beta4 nAChRs [6]; 300 μM, 36 minutes wash): absence of recovery; also recorded: cannot be recovered even after 36 minutes wash | response evoked by 300 μM agonist (human alpha3beta4 nAChRs [6]; applied during three minutes): larger current amplitude; also recorded: rather large response | desensitization / inhibition of the response by sustained agonist exposure (human alpha4beta2 nAChRs [1]): profound inhibition; also recorded: major desensitization; also recorded: sustained inhibition; also recorded: major inhibition | recovery of the response after wash (human alpha4beta2 nAChRs [1]): could not be removed even after a three-hour wash period; also recorded: no significant recovery; also recorded: absence of recovery | recovery from desensitization (human alpha4beta2 nAChRs [7]): absence of recovery; also recorded: cannot be recovered even after 36 minutes wash | EC50 (human nAChR alpha3beta4): low micromolar range | agonist character (human nAChR alpha3beta4): partial agonist | EC50 (human nAChR alpha4beta2): low micromolar range | effect on the subsequent ACh-evoked current (human nAChR alpha4beta2): major inhibition | agonist character (human nAChR alpha4beta2): partial agonist | agonist character (human nAChR alpha4beta2; listed as Varenicline tartrate): very poor agonist | EC50 [3]: low micromolar range | agonist character [3]: partial agonist | inhibition of the ACh-evoked current by sustained exposure (human alpha3beta4 nAChRs [5]): very modest effect; also recorded: no significant inhibition
